Test [1] deals with 5-HT binding protein (5-HTBP), an acetylcholine binding protein (AChBP) from Aplysia californica engineered to bind 5-HT (Aplysia californica). Nature of the test: crystal structure; 5-HTBP at 6 mg/mL mixed with 5 mM varenicline; space group P4(1)2(1)2; 2.3 Å; one pentamer per asymmetric unit.
Test [2] has as its target T1, 5-HT3 receptor (5-HT3A) (Homo sapiens, UniProt P46098, W85Y).
T1 construct: gene HTR3A; full-length cDNA in pcDNA3.1, transiently expressed in HEK293 cells; homopentamer (also in Xenopus oocytes)
T1 sequence (P46098 24-478 W85Y): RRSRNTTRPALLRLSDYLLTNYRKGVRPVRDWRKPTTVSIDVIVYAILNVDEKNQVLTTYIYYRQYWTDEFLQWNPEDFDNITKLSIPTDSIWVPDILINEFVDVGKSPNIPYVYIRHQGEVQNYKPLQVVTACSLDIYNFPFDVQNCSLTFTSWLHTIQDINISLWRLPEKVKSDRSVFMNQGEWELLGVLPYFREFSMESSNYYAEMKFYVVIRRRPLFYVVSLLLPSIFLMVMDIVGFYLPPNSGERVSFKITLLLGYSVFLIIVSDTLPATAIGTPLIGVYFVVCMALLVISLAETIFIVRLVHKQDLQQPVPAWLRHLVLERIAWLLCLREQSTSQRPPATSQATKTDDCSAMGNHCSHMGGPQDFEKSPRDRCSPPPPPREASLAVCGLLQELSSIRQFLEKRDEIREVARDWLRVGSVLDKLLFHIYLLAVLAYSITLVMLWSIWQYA
Nature of the test: membrane potential dye fluorescence, FlexStation, transfected HEK293 cells. The test is classed as cell-based. The note with it: read-out: varenicline EC50.

Test [3] concerns the target T2, 5-HT3 receptor (5-HT3A) (Homo sapiens, UniProt P46098, Y148A).
T2 construct: gene HTR3A; full-length cDNA in pcDNA3.1, transiently expressed in HEK293 cells; homopentamer (also in Xenopus oocytes)
T2 sequence (P46098 24-478 Y148A): T1 sequence (P46098 24-478 W85Y) with Y62W, Y125A
The test is described as above. The test is classed as cell-based. The note with it: read-out: varenicline EC50.

The target in test [4] is T3, 5-HT3 receptor (5-HT3A) (Homo sapiens, UniProt P46098).
T3 construct: gene HTR3A; full-length cDNA in pcDNA3.1, transiently expressed in HEK293 cells; homopentamer (also in Xenopus oocytes)
T3 sequence (P46098 24-478): T1 sequence (P46098 24-478 W85Y) with Y62W
Described as above. The test is classed as cell-based. The settings on record: read-out: varenicline EC50.

Test [5] has as its target T4, 5-HT3 receptor (5-HT3A) (Homo sapiens, UniProt P46098, Y89A).
T4 construct: gene HTR3A; full-length cDNA in pcDNA3.1, transiently expressed in HEK293 cells; homopentamer (also in Xenopus oocytes)
T4 sequence (P46098 24-478 Y89A): T1 sequence (P46098 24-478 W85Y) with Y62W, Y66A
The description is as above. The class given is cell-based. The settings on record: read-out: varenicline EC50.

The target of another test is 5-HTBP (Aplysia californica, UniProt Q8WSF8, Q74R/S111E/V159L/K160T). Nature of the test: X-ray crystal structure, […] Å. The class given is binding. The settings on record: co-crystallised, 5 mM varenicline (tartrate) with 6 mg/mL protein; orthosteric site, all five sites.
The target of test [6] is T5, 5-HT3 receptor (5-HT3A) (Homo sapiens, UniProt P46098, N123Q).
T5 construct: gene HTR3A; full-length cDNA in pcDNA3.1, transiently expressed in HEK293 cells; homopentamer (also in Xenopus oocytes)
T5 sequence (P46098 24-478 N123Q): T1 sequence (P46098 24-478 W85Y) with Y62W, N100Q
Put plainly: membrane potential dye fluorescence, FlexStation, transfected HEK293 cells. The test is classed as cell-based. The note with it: read-out: varenicline EC50.

Test [7] has as its target T6, 5-HT3 receptor (5-HT3A) (Homo sapiens, UniProt P46098, W178Y).
T6 construct: gene HTR3A; full-length cDNA in pcDNA3.1, transiently expressed in HEK293 cells; homopentamer (also in Xenopus oocytes)
T6 sequence (P46098 24-478 W178Y): T1 sequence (P46098 24-478 W85Y) with Y62W, W155Y
The test is described as above. The class given is cell-based. The settings on record: read-out: varenicline EC50.

Data on two compounds can be found in publication PMC4505686 (ACS Chemical Neuroscience, 2015).

Broadly, the stoichiometry N is the number of molecules, sites or subunits per partner or assembly. A word on the EC50: it is the midpoint of the concentration-response curve.

Positions count from the first letter of the chain named.

5-HTBP, sequence (Q8WSF8 entry or part of it Q74R/S111E/V159L/K160T): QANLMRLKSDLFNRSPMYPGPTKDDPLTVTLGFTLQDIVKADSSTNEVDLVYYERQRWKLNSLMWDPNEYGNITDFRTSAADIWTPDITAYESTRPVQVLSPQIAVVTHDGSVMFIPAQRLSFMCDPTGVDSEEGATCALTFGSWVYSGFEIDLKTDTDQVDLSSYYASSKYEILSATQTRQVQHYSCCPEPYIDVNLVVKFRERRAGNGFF

The compound “5-HT binding protein (5-HTBP), an acetylcholine binding protein (AChBP) from Aplysia californica engineered to bind 5-HT (natural protein)” gave a stoichiometry N in test [1] of 5.
`c1cnc2cc3c(cc2n1)C1CNCC3C1` [varenicline]: the EC50 on 5-HT3 receptor (5-HT3A) [2] turned out to be 2.9 µM; at 5-HT3 receptor (5-HT3A) [3], 9.4 µM; at 5-HT3 receptor (5-HT3A) [4] it was 0.42 µM; on 5-HT3 receptor (5-HT3A) [5] it was 0.13 µM; at 5-HT3 receptor (5-HT3A) [6], 26 µM; on 5-HT3 receptor (5-HT3A) [7], 38 µM. For the same compound, the “X-ray crystal structure, 2.3 Å” value on 5-HTBP is “three-dimensional structure of 5-HTBP in complex with varenicline”.
